Test results: patent US10106589B2, “Compositions and methods for immunomodulation” (FUNDACIO INSTITUT D'INVESTIGACIO BIOMEDICA DE BELLVITGE …, priority 2011, dated 2018)

Assays:
LPS-matured human Mo-DCs = test system: LPS-matured human Mo-DCs; set-up: key: (−) negligible; (+) low; (++) moderate; (+++) high; settings: cytokine; Vit D3-treated and LPS-induced DCs; data from Naranjo-Gomez et al. (2011); cited from earlier work
human Mo-DCs [1] = test system: human Mo-DCs; set-up: key: (−) negligible; (+) low; (++) moderate; (+++) high; settings: Vit D3-treated and LPS-induced DCs; data from Heitger (2011); cited from earlier work
allogeneic CD3+ T cells = test: Mixed leukocyte reaction ([3H]-thymidine incorporation); assay type: cell-based, human; set-up: key to Alloproliferation (T CD3^+): (−) negligible; (+) low; (++) moderate; (+++) high; settings: functional assay; treated and LPS-induced DCs
Method: CD3^+ T cells (10^5/well) and C4BP-treated (α7β1 and α7β0), or Factor H-treated, and LPS-activated Mo-DCs were seeded in a 96-well round-bottom plate at various DC:T cell ratios (1:40, 1:80 and 1:160) and cultured in X-VIVO 15 medium (Biowittaker, Walkersville, Md.) supplemented with 100 μg/ml of streptomycin, 100 IU/ml of penicillin and 2 mM L-glutamine (all from Invitrogen) plus 2% Human AB Serum. Allospecific proliferation was measured after 5 days of incubation. At day 4, the […] [^3H]-thymidine (1 μCi/well, Perkin Elmer, Boston, Mass.) was added, followed by incubation for another 16 h. Labeled cells were then harvested onto glass-fiber filters with a Filtermate Harvester (Packard, Meriden, Conn.), and the T cell proliferation rate was determined by the amount of [^3H]-thymidine incorporation, which was measured in a TopCount NXT counter (Packard). Results are reported as the mean cpm±SD of thymidine incorporation in quadruplicate culture wells.

human Mo-DCs [2] = test: Flow cytometry of cell surface markers on treated, LPS-matured Mo-DCs; assay type: cell-based; set-up: key to HLA-DR / CD40 / CD83 / CD86 / CD14 / CD1a / CCR7: (−) negligible; (+) low; (++) moderate; (+++) high; settings: surface marker; treated and LPS-induced DCs
Method: Peripheral blood mononuclear cells (PBMCs) were obtained from buffy coat preparations belonging to healthy donors from the Blood and Tissue Bank (Barcelona, Spain) after Ficoll-Paque™ density centrifugation (GE Healthcare Bio-Sciences AB; Uppsala, Sweden). Monocytes were purified by two different methods: 1) Cells were plated at 1×10^6 cells/ml in 60 mm culture plates (Corning, Spain) in RPMI without serum and allowed to adhere for 2 h at 37° C. in 5% CO2. The non-adherent cells were removed by washing in PBS. […] 2) Cells were purified using colloidal super-paramagnetic microbeads conjugated with monoclonal mouse anti-human CD14 antibodies (MACS, Miltenyi Biotec, Auburn, Calif., or EasySep® Positive Selection Cocktail, StemCell Technologies, Grenoble, France). The purity of CD14^+ cells was tested by CD14 staining and flow cytometry analysis (>90% CD14^+ cells). Monocyte-derived DCs (Mo-DCs) were generated supplementing the monocyte cultures with complete RPMI 1640 medium plus GM-CSF (800 UI/ml) and IL-4 (500 UI/ml) (both from Gentaur, Kampenhout, Belgium) at day 0 and day 3 of culture. For DC maturation, at day 5 iDCs were further stimulated for 48 h with 5 μg/ml LPS (Escherichia coli 055.B5, Sigma L2880, Copenhagen, Denmark).
Cell surface phenotypes were analyzed using the following monoclonal antibodies: FITC-conjugated anti-HLA-DR (Immu-357), FITC-conjugated anti-CD83 (HB15a), FITC-conjugated anti-CD14 (RMO52), PE-conjugated anti-CD40 (MAB89), PE-conjugated anti-CD1a (BL6), PE-conjugated anti-CD80 (MAB104), PE-conjugated anti-CD86 (HA5.2B7) (all from Beckman-Coulter), Alexa Fluor 488-conjugated anti-CCR7 (TG8/CCR7, Biolegend, San Diego, Calif.), and the respective isotype controls from the same commercial sources. After washing with PBS, cells were subsequently stained with 3 μl MoAb/10^5 cells in 100 μl of FACS buffer (PBS containing 1% BSA and 0.1% sodium azide) for 20 min at room temp. Stained cells were analysed using a FACScalibur (Becton Dickinson). Mo-DCs were gated according to forward scatter (FSC) and side scatter (SSC) parameters. The results were analysed using CellQuestPro software (Becton Dickinson).
Both the different C4BP isoforms (α7β1, α7β0 and α6β0), and Factor H were added at 2, 5 and 10 μg/ml throughout Mo-DC differentiation, maturation, or both. Namely, for the differentiation assays the proteins were added at day 0 and replenished at day 3. For the maturation assays the proteins were added at day 5, either alone or combined with LPS. Finally, for the differentiation plus maturation assays the proteins were added at days 0, 3 and 5 (at the last time point, combined with LPS).

human Mo-DCs [3] = test: Apoptosis determination (Annexin V / 7-ADD); assay type: cell-based; set-up: key: (−) negligible; (+) low; (++) moderate; (+++) high; settings: viability; treated and LPS-induced DCs
Text: Double staining using with the fluorescent dyes Annexin V (Annexin V-PE Apoptosis Detection Kit I, BD Pharmigen, San Diego, Calif.) and 7-amino-actinomycin D (7-ADD) (BD Pharmigen), and flow cytometry analysis, was employed to assess the viability/apoptosis status of C4BP α7β1-, C4BP α7β0-, recC4BP α6β0-, or Factor H-treated and untreated Mo-DCs.

C=C1/C(=C\C=C2/CCC[C@]3(C)[C@@H]([C@H](C)CCCC(C)(C)O)CC[C@@H]23)C[C@@H](O)C[C@@H]1O [Vit D3, calcitriol, reference compound]
IL-10 (LPS-matured human Mo-DCs): ++ (*)
IL-12 (LPS-matured human Mo-DCs): − (*)
IDO (human Mo-DCs [1]): +++ (**)
Alloproliferation (T CD3^+) (allogeneic CD3+ T cells): −
CCR7 (human Mo-DCs [2]): ++
CD1a (human Mo-DCs [2]): −
CD14 (human Mo-DCs [2]): +
CD40 (human Mo-DCs [2]): +
CD83 (human Mo-DCs [2]): +
CD86 (human Mo-DCs [2]): −
HLA-DR (human Mo-DCs [2]): +
Apoptosis after treatment (human Mo-DCs [3]): +
